{"source": "patent US8501424B2", "about": "“Cd4+ epitopes of bone morphogenetic proteins” (Danisco US Inc., priority 2003, dated 2013)", "key": {"[1]": {"system": "HLA Class II antigens at DRB1 and DQB1", "assay": "HLA associations of proliferative responses to epitope peptides", "type": "cell-based, human", "settings": "for relative risk (RR): 83 donors", "procedure": "In addition to the above analyses, the HLA associations with BMP-7 and BMP-14 epitope peptides were determined. In these experiments, the proliferative response data to five epitope peptides (#3, #7, #8, #16 and #31) were tested in 83 donors for which the expression of HLA Class II antigens at DRB1 and DQB1 was also tested. For four of the peptides, the reaction was assessed by two methods (i.e., “QC” and “non-QC,” “[nQC”] as described above). The statistically significant associations found by both methods were as follows. For epitope #3 and DR11, the relative risk (RR) was 6.25; p<0.0005 [QC], RR=4.17 p<0.005 [nQC]. For epitope #3 and DQ2, the RR was 0.17 p<0.04 [QC], RR=0.13 p<0.01 [nQC]. For epitope #3 and DQ9, the RR was 6.67 p<0.003 [QC]; RR=4.85 p<0.013 [nQC]. For epitope #8 and DR11, the RR was 6.6 p<0.0003. For epitope #31 and DR7, the RR was 8.32 p<0.001 [QC]; RR=4.44 p<0.002 [nQC].\nIn addition the average stimulation index (SI) was higher among DR11+ than among DR11− donors for peptide #3 (QC) (5.8 fold, p<0.0004) and peptide #8 (2.3 fold p<0.007). Also the average SI was higher among DR7+ than among DR7− donors for peptide #31 (QC) (2.7 fold p<0.0007)."}, "CD4+ T-cells": {"system": "CD4+ T-cells", "assay": "I-MUNE T-cell proliferation assay (dendritic cells + autologous CD4+ T-cells + 15-mer peptides, tritiated thymidine)", "type": "cell-based, human", "parameters": "key to epitope designation: major: response rate within the tested donor pool is at least three standard deviations above the mean background response rate; moderate: response rate within the tested donor pool is at least two standard deviations above the mean or three times the background; minor: response rate within the tested donor pool is at least twice the background", "settings": "83 donors; for structure value: 15-mer peptide sets, 5 μg/ml, positive response SI >= 2.95, analysis method (QC/non-QC) not stated at place", "text": "Full length amino acid sequences of human BMP-7 (GenBank Accession No. P18075) and BMP-14 (GenBank Accession No. P43026) precursor proteins were used to create 15-mer peptide sets. These variant peptides were synthesized by Mimotopes, using the multi-pin synthesis technique known in the art (See e.g., Maeji et al., J. Immunol. Meth., 134:23-33 [1990]). The 15-mer peptides were created such that sequences with adjacent peptides shared 12 amino acids (i.e., each peptide was offset by three amino acids). Peptides were diluted with DMSO to provide a stock concentration of approximately 2 mg/ml. The final concentration of peptides used in each assay was 5 μg/ml.\nFresh human peripheral blood cells were collected from 83 community donors. These cells were tested to determine antigenic epitopes in BMP-7 and BMP-14, as described in Example 3, below.\nPeripheral mononuclear blood cells (PBMCs) (stored at room temperature, no older than 24 hours) were prepared for use as follows. PBMCs were isolated from buffy coat material by centrifuging over an underlay of LYMPHOPREP™ at 1000×g for 30 minutes. The interface layer was collected and washed and counted using the CELL-DYN® 3700 System (Abbott). Then, suspensions containing 10^8 PBMCs resuspended in 30 ml of AIM-V (Invitrogen) were prepared and the cells were allowed to adhere to plastic T-75 culture flasks for two hours. The remainder of the cells were frozen at 5×10^7 cells/ml in 90% FCS (Gibco/BRL) and 10% DMSO (Sigma).\nAfter the two hour PBMC incubation period, non-adherent cells were removed from the culture flasks. The adherent cells were cultured in the flasks with 800 units/ml recombinant human GM-CSF (Endogen) and 100 units/ml recombinant human IL4 (Endogen) at 37° C., 5% CO2. On day 5 of incubation, 50 units/ml recombinant human Il-1α (Endogen) and 0.2 units/ml recombinant human TNF-α were added to the cultures. Adherent and non-adherent dendritic cells were harvested, washed, and counted on day 7, following a one-hour treatment with […] mitomycin C (Sigma) and 10 mM EDTA.\nAutologous CD4+ T-cells were prepared from frozen aliquots of PBMCs. After thawing and washing in DPBS, CD4+ T-cells were isolated using a commercially available CD4 negative selection kit (Dynal), according to the manufacturer's instructions. Cells were counted using the Abbott CELL-DYN® 3700 System. The purity obtained using these methods was generally found to be greater than 90%.\nThis Example describes the assay system used in the present invention. This test system is also referred to as the “I-MUNE®” assay system. In 96-well, round bottom plates, autologous dendritic cells and CD4+ T-cells were combined with test peptides. More specifically, in a volume of 100 μl/well, 2×10^4 dendritic cells in AIM V were combined with individual peptides (at a final peptide concentration of 5 μg/ml and a final DMSO concentration of 0.25%). After a one-hour incubation at 37° C., 5% CO2, 2×10^5 CD4+ T-cells were added to the culture for a total volume of 200 μl. Negative control wells contained dendritic cells, CD4+ T-cells and 0.25% DMSO. Positive control wells contained dendritic cells, CD4+ T-cells (at the same concentrations as the test wells) and 0.25% DMSO with 0.4 μg/ml tetanus toxoid (List). Individual peptides were tested in duplicate for each donor.\nAfter 5 days of incubation at 37° C., 5% CO2, the cultures were pulsed with 0.25 μCi/well tritiated thymidine (Perkin Elmer). After a subsequent 24 hours of incubation, plates were harvested and assessed for incorporation of the tritiated thymidine (i.e., T-cell proliferation) using a Wallac MICROBETA® TriLux liquid scintillation counter (Perkin Elmer).\nFor each individual buffy coat sample, the average CPM values for all of the peptides were analyzed. The average CPM values for each peptide were divided by the average CPM value for the control (DMSO only) wells to determine the “stimulation index” (SI). […]"}, "[2]": {"settings": "patients treated for spinal problems; cited from earlier work"}}, "data": [{"molecule": "SPISILFIDSANNVV (BMP-14 epitope) [Peptide 31]", "values": [{"measurement": "relative risk (RR)", "setting": "[1]; DR7, QC, p<0.001", "value": 8.32}, {"measurement": "relative risk (RR)", "setting": "[1]; DR7, nQC, p<0.002", "value": 4.44}, {"measurement": "average SI higher among DR7+ than among DR7− donors", "setting": "[1]; QC, p<0.0007", "value": 2.7, "unit": "fold"}]}, {"molecule": "RMANVAENSSSDQRQ (BMP-7 epitope) [Peptide 8]", "values": [{"measurement": "relative risk (RR)", "setting": "[1]; DR11, method not stated, p<0.0003", "value": 6.6}, {"measurement": "average stimulation index (SI) higher among DR11+ than among DR11− donors", "setting": "[1]; method not stated, p<0.007", "value": 2.3, "unit": "fold"}]}, {"molecule": "RSQNRSKTPKNQEAL (BMP-7 epitope) [Peptide 3]", "values": [{"measurement": "relative risk (RR)", "setting": "[1]; DQ2, QC, p<0.04", "value": 0.17}, {"measurement": "relative risk (RR)", "setting": "[1]; DQ2, nQC, p<0.01", "value": 0.13}, {"measurement": "relative risk (RR)", "setting": "[1]; DQ9, QC, p<0.003", "value": 6.67}, {"measurement": "relative risk (RR)", "setting": "[1]; DQ9, nQC, p<0.013", "value": 4.85}, {"measurement": "relative risk (RR)", "setting": "[1]; DR11, QC, p<0.0005", "value": 6.25}, {"measurement": "relative risk (RR)", "setting": "[1]; DR11, nQC, p<0.005", "value": 4.17}, {"measurement": "average stimulation index (SI) higher among DR11+ than among DR11− donors", "setting": "[1]; QC, p<0.0004", "value": 5.8, "unit": "fold"}]}, {"molecule": "SNVILKKYRNMVVRA (BMP-7 epitope) [Peptide 41]", "values": [{"measurement": "epitope designation", "setting": "CD4+ T-cells", "value": "minor"}, {"measurement": "statistical significance of peptide response (Poisson, cut-off p<0.05)", "setting": "CD4+ T-cells; QC method", "value": "did not reach the p<0.05 cut-off"}]}, {"molecule": "SHLEPTNHAVIQTLM (BMP-14 epitope) [Peptide 20]", "values": [{"measurement": "epitope designation", "setting": "CD4+ T-cells", "value": "minor"}, {"measurement": "statistical significance of peptide response (Poisson, cut-off p<0.05)", "setting": "CD4+ T-cells; QC method", "value": "did not reach the p<0.05 cut-off"}]}, {"molecule": "PLRSHLEPTNHAVIQ (BMP-14 epitope) [Peptide 19]", "values": [{"measurement": "epitope designation", "setting": "CD4+ T-cells", "value": "minor"}, {"measurement": "statistical significance of peptide response (Poisson, cut-off p<0.05)", "setting": "CD4+ T-cells; QC method", "value": "did not reach the p<0.05 cut-off"}]}, {"molecule": "BMP-14: human BMP-14 (GenBank Accession No. P43026), tested as 15-mer peptide set (protein, UniProt P43026 382-501, looked up, tested as overlapping 15-mer peptides) Growth/differentiation factor …: APLATRQGKRPSKNLKARCSRKALHVNFKDMGWDDWIIAPLEYEAFHCEGLCEFPLRSHLEPTNHAVIQTLMNSMDPESTPPTCCVPTRLSPISILFIDSANNVVYKQYEDMVVESCGCR", "values": [{"measurement": "structure value", "setting": "CD4+ T-cells", "value": 0.57}]}, {"molecule": "BMP-7: human BMP-7 (GenBank Accession No. P18075), tested as 15-mer peptide set (protein, UniProt P18075 293-431, looked up, tested as overlapping 15-mer peptides) Bone morphogenetic protein 7: STGSKQRSQNRSKTPKNQEALRMANVAENSSSDQRQACKKHELYVSFRDLGWQDWIIAPEGYAAYYCEGECAFPLNSYMNATNHAIVQTLVHFINPETVPKPCCAPTQLNAISVLYFDDSSNVILKKYRNMVVRACGCH", "values": [{"measurement": "structure value", "setting": "CD4+ T-cells", "value": 0.70}, {"measurement": "relative immunogenicity by structure values", "setting": "CD4+ T-cells; QC method", "value": "more immunogenic than BMP-14"}, {"measurement": "relative immunogenicity", "setting": "CD4+ T-cells; non-QC method", "value": "more immunogenic than the BMP-14 protein"}, {"measurement": "treated patients who developed detectable anti-BMP antibodies", "setting": "[2]", "value": 38, "unit": "%"}]}]}
